Test results published in patent publication US9273052B2, “Phthalazinone ketone derivative, preparation method thereof, and pharmaceutical use thereof” (Jiangsu Hansoh Pharmaceutical Co., Ltd., priority 2010, dated 2016).
Like-named read-outs stand apart in the source and are kept apart here. One block for each compound: values may come before it.

What was measured:
MDA-MB-436 cells = assay: Cell proliferation inhibition assay (CCK8); type: cell-based; conditions: Homo sapiens, 72 hours
[1] = system: human colon carcinoma SW620; assay: Antitumor effect with temozolomide on SW620 transplanted tumors in nude mice; type: in vivo; conditions: colon carcinoma SW620 in BALB/cA-nude mice; 1 mg/kg oral gavage + TMZ 50 mg/kg oral gavage; day 44
Experimental: The therapeutic effect of the compounds of the present invention administered in combination with temozolomide (TMZ) on transplanted tumors of human colon carcinoma SW620 or human breast cancer cells MX-1 in nude mice was evaluated by using BALB/cA-nude mice as test animals.
BALB/cA-nude mice, SPF, 16-20 g, female( ), were purchased from SINO-BRITSH SIPPR/BK LAB. ANIMAL LTD., CO. Certificate No.: SCXK(Shanghai) 2008-0016.
4.2 The right rib of the nude mice was subcutaneously inoculated with colon carcinoma cells SW620. After tumors grew to 339±132 mm^3, mice were randomly divided into teams (d0).
The volume of tumors and the weight of the mice were measured and recorded for 2 to 3 times per week.
The volume of tumor (V) was calculated by the follow equation: V=½×a×b^2 wherein: a, b represents length and width respectively. The antitumor rate(%)=(C−T)/C(%) wherein: T, C represents the tumor volume of the experimental group (tested compounds) and blank control group at the end of the experiment respectively. 5. Dosage, Dosage Regimens and the Results

[2] = Pharmacokinetics assay in SD rats (LC/MS/MS plasma concentration); type: in vivo; conditions: 15 mg/kg; for AUC / half-life / MRT / Cmax / bioavailability: both sexes, rat, plasma; for AUC: read-out: Area Under Curve AUC; for half-life: read-out: Half-Life t1/2 (converted); for MRT: read-out: Mean Residence Time MRT; for Cmax: read-out: Plasma Conc. Cmax; for bioavailability: po
Experimental: The pharmacokinetic behavior of the compounds of the present invention was studied and evaluated in rats.
24 Healthy adult SD rats, male and female in half, were purchased from SINO-BRITSH SIPPR/BK LAB. ANIMAL LTD., CO, Certificate No.: SCXK (Shanghai) 2003-0002.
The intragastrical administration group: the right amount of tested compounds were weighed and dissolved in 0.5 mL of DMSO, diluted with physiological saline to 10 mL and prepared to 1.5 mg/mL.
The intravenous injection administration group: the right amount of tested compounds were weighed and added into […].
After an overnight fast, 24 healthy adult SD rats, male and female in half, were administered intragastrically at a dose of 15.0 mg/kg and an administration volume of 10 mL/kg.
(§1) The intragastrical administration group: blood samples (0.2 mL) were taken from orbital sinus at pre administration and at 0.25 hour, 0.5 hour, 1.0 hour, 1.5 hours, 2.0 hours, 3.0 hours, 4.0 hours, 6.0 hours, 7.0 hours, 9.0 hours, 12.0 hours and 24.0 hours post administration, stored in heparinized tubes and centrifuged for 20 minutes at 3,500 rpm to separate plasma. The plasma samples were stored at −20° C. The rats were fed at 2 hours after administration.
as §1, with “intravenous injection” for “intragastrical”, “2 minutes, 15 minutes,” for “0.25 hour,”, “hour,” for “hour, 1.5 hours,”, “8.0” for “7.0 hours, 9.0”, “C.” for “C. The rats were fed at 2 hours after administration.”
20 μL of rat blank plasmas taken at various time points after administration were added with 50 μL of internal standard solution and 140 μL of methanol and mixed for 3 minutes by a vortexer. The mixture was centrifuged for 10 minutes at 13,500 rpm. 20 μL of the supernatant was analyzed by LC-MS/MS. The main pharmacokinetic parameters were calculated by software DAS 2.0.

IC50 (MDA-MB-436 cells): 0.0008 µM
Structure (SMILES): O=C(c1cc(Cc2n[nH]c(=O)c3ccccc23)ccc1F)N1CCn2c(nnc2C(F)(F)F)C1 [Example 1, 4-[[4-fluoro-3-[3-(trifluoromethyl)-6,8-dihydro-5H-[1,2,4]triazolo[4,3-a]pyrazine-7-carbonyl]phenyl]methyl]-2H-phthalazin-1-one]
antitumor rate (%) [1]: ++ (“++”: 60%~80%)

IC50 (MDA-MB-436 cells): 0.071 µM
AUC ([2]; intravenous injection): 34800 ± 15500 ng·h/mL
half-life ([2]; intravenous injection): 0.94 ± 0.26 h
MRT ([2]; intravenous injection): 1.25 ± 0.53 h
AUC ([2]; oral gavage): 4500 ± 6670 ng·h/mL
half-life ([2]; oral gavage): 3.87 ± 4.03 h
MRT ([2]; oral gavage): 12.7 ± 15.4 h
Cmax ([2]; oral gavage): 971 ± 1400 ng/mL
bioavailability [2]: 12.9%
Apparent Distribution Volume Vz/F ([2]; intravenous injection): 0.64 ± 0.19 kg⁻¹
Clearance CL/F ([2]; intravenous injection): 0.52 ± 0.29 1/11/kg
Apparent Distribution Volume Vz/F ([2]; oral gavage): 103 ± 134 kg⁻¹
Clearance CL/F ([2]; oral gavage): 15.4 ± 12.4 1/11/kg
Structure (SMILES): CCNC(=O)c1nc(C(F)(F)F)n2c1CN(C(=O)c1cc(Cc3n[nH]c(=O)c4ccccc34)ccc1F)CC2 [Example 7, N-ethyl-7-[2-fluoro-5-[(4-oxo-3H-phthalazin-1-yl)methyl]benzoyl]-3-(trifluoromethyl)-6,8-dihydro-5H-imidazo[1,5-a]pyrazine-1-carboxamide]

IC50 (MDA-MB-436 cells): 0.14 µM
Structure (SMILES): NC(=O)c1nc(C(F)(F)F)n2c1CN(C(=O)c1cc(Cc3n[nH]c(=O)c4ccccc34)ccc1F)CC2 [Example 10, 7-[2-fluoro-5-[(4-oxo-3H-phthalazin-1-yl)methyl]benzoyl]-3-(trifluoromethyl)-6,8-dihydro-5H-imidazo[1,5-a]pyrazine-1-carboxamide]

IC50 (MDA-MB-436 cells): 0.59 µM
Structure (SMILES): O=C(c1cc(Cc2n[nH]c(=O)c3ccccc23)ccc1F)N1CCn2cc(C(F)(F)F)nc2C1 [Example 12, 4-[[4-fluoro-3-[2-(trifluoromethyl)-6,8-dihydro-5H-imidazo[1,2-a]pyrazine-7-carbonyl]phenyl]methyl]-2H-phthalazin-1-one]

IC50 (MDA-MB-436 cells): 0.19 µM
Structure (SMILES): COC(=O)c1nc(C(F)(F)F)n2c1CN(C(=O)c1cc(Cc3n[nH]c(=O)c4ccccc34)ccc1F)CC2 [Example 3, methyl 7-[2-fluoro-5-[(4-oxo-3H-phthalazin-1-yl)methyl]benzoyl]-3-(trifluoromethyl)-6,8-dihydro-5H-imidazo[1,5-a]pyrazine-1-carboxylate]

IC50 (MDA-MB-436 cells): 0.002 µM
Structure (SMILES): O=C(c1cc(Cc2n[nH]c(=O)c3ccccc23)ccc1F)N1CCn2c(nnc2C(F)F)C1 [Example 23, 4-[[3-[3-(difluoromethyl)-6,8-dihydro-5H-[1,2,4]triazolo[4,3-a]pyrazine-7-carbonyl]-4-fluoro-phenyl]methyl]-2H-phthalazin-1-one]

IC50 (MDA-MB-436 cells): 0.32 µM
Structure (SMILES): O=C(c1cc(Cc2n[nH]c(=O)c3ccccc23)ccc1F)N1CCn2c(cnc2C(F)(F)F)C1 [Example 5, 4-[[4-fluoro-3-[3-(trifluoromethyl)-6,8-dihydro-5H-imidazo[1,5-a]pyrazine-7-carbonyl]phenyl]methyl]-2H-phthalazin-1-one]

IC50 (MDA-MB-436 cells): 0.072 µM
Structure (SMILES): O=C(NCC1CC1)c1nc(C(F)(F)F)n2c1CN(C(=O)c1cc(Cc3n[nH]c(=O)c4ccccc34)ccc1F)CC2 [Example 24, N-(cyclopropylmethyl)-7-[2-fluoro-5-[(4-oxo-3H-phthalazin-1-yl)methyl]benzoyl]-3-(trifluoromethyl)-6,8-dihydro-5H-imidazo[1,5-a]pyrazine-1-carboxamide]

IC50 (MDA-MB-436 cells): 0.61 µM
Structure (SMILES): O=C(c1cc(Cc2n[nH]c(=O)c3ccccc23)ccc1F)N1CCn2c(C(F)(F)F)nc(C(=O)N3CCCC3)c2C1 [Example 18, 4-[[4-fluoro-3-[1-(pyrrolidine-1-carbonyl)-3-(trifluoromethyl)-6,8-dihydro-5H-imidazo[1,5-a]pyrazine-7-carbonyl]phenyl]methyl]-2H-phthalazin-1-one]

IC50 (MDA-MB-436 cells): 0.061 µM
Structure (SMILES): O=C(c1cc(Cc2n[nH]c(=O)c3ccccc23)ccc1F)N1CCn2cnnc2C1 [Example 17, 4-[[3-(6,8-dihydro-5H-[1,2,4]triazolo[4,3-a]pyrazine-7-carbonyl)-4-fluoro-phenyl]methyl]-2H-phthalazin-1-one]

IC50 (MDA-MB-436 cells): 0.65 µM
Structure (SMILES): CN(C)C(=O)c1nc(C(F)(F)F)n2c1CN(C(=O)c1cc(Cc3n[nH]c(=O)c4ccccc34)ccc1F)CC2 [Example 22, 7-[2-fluoro-5-[(4-oxo-3H-phthalazin-1-yl)methyl]benzoyl]-N,N-dimethyl-3-(trifluoromethyl)-6,8-dihydro-5H-imidazo[1,5-a]pyrazine-1-carboxamide]

IC50 (MDA-MB-436 cells): 0.003 µM
Structure (SMILES): O=C(c1cc(Cc2n[nH]c(=O)c3ccccc23)ccc1F)N1CCn2c(nnc2CC(F)(F)F)C1 [Example 26, 4-[[4-fluoro-3-[3-(2,2,2-trifluoroethyl)-6,8-dihydro-5H-[1,2,4]triazolo[4,3-a]pyrazine-7-carbonyl]phenyl]methyl]-2H-phthalazin-1-one]

IC50 (MDA-MB-436 cells): 0.12 µM
AUC ([2]; intravenous injection): 29400 ± 18500 ng·h/mL
half-life ([2]; intravenous injection): 5.05 ± 1.34 h
MRT ([2]; intravenous injection): 0.89 ± 0.44 h
AUC ([2]; oral gavage): 4300 ± 3250 ng·h/mL
half-life ([2]; oral gavage): 6.01 ± 2.27 h
MRT ([2]; oral gavage): 1.87 ± 0.53 h
Cmax ([2]; oral gavage): 3070 ± 719 ng/mL
bioavailability [2]: 16.8%
Apparent Distribution Volume Vz/F ([2]; intravenous injection): 4.70 ± 2.17 kg⁻¹
Clearance CL/F ([2]; intravenous injection): 0.72 ± 0.45 1/11/kg
Apparent Distribution Volume Vz/F ([2]; oral gavage): 49.9 ± 52.9 kg⁻¹
Clearance CL/F ([2]; oral gavage): 4.47 ± 3.78 1/11/kg
Structure (SMILES): CNC(=O)c1nc(C(F)(F)F)n2c1CN(C(=O)c1cc(Cc3n[nH]c(=O)c4ccccc34)ccc1F)CC2 [Example 13, 7-[2-fluoro-5-[(4-oxo-3H-phthalazin-1-yl)methyl]benzoyl]-N-methyl-3-(trifluoromethyl)-6,8-dihydro-5H-imidazo[1,5-a]pyrazine-1-carboxamide]

IC50 (MDA-MB-436 cells): 0.0009 µM
Structure (SMILES): O=C(c1cccc(Cc2n[nH]c(=O)c3ccccc23)c1)N1CCn2c(nnc2C(F)(F)F)C1 [Example 15, 4-[[3-[3-(trifluoromethyl)-6,8-dihydro-5H-[1,2,4]triazolo[4,3-a]pyrazine-7-carbonyl]phenyl]methyl]-2H-phthalazin-1-one]

IC50 (MDA-MB-436 cells): 0.78 µM
Structure (SMILES): CNC(=O)c1nc(C(F)(F)F)n2c1CN(C(=O)c1cccc(Cc3n[nH]c(=O)c4ccccc34)c1)CC2 [Example 21, N-methyl-7-[3-[(4-oxo-3H-phthalazin-1-yl)methyl]benzoyl]-3-(trifluoromethyl)-6,8-dihydro-5H-imidazo[1,5-a]pyrazine-1-carboxamide]

IC50 (MDA-MB-436 cells): 0.099 µM
Structure (SMILES): O=C(c1cc(Cc2n[nH]c(=O)c3ccccc23)ccc1F)N1CCn2ncnc2C1 [Example 16, 4-[[3-(6,8-dihydro-5H-[1,2,4]triazolo[1,5-a]pyrazine-7-carbonyl)-4-fluoro-phenyl]methyl]-2H-phthalazin-1-one]
